The molecules below were run against human Nav1.7 (Homo sapiens (Human), UniProt Q15858) (assay: FLIPR sodium dye assay (CoroNa Green AM Na+ dye, primary fluorescence assay)). Conditions: recombinant Nav1.7/HEK293 cells.
Assay type: cell-based
Protocol: In vitro assays were performed in a recombinant cell line expressing cDNA encoding the alpha subunit (Nav1.7, SCN9a, PN1, NE) of human Nav1.7 (Accession No. NM_002977). The cell line was provided by investigators at Yale University (Cummins et al, J. Neurosci. 18(23): 9607-9619 (1998)). For dominant selection of the Nav1.7-expressing clones, the expression plasmid co-expressed the neomycin resistance gene. The cell line was constructed in the human embryonic kidney cell line, HEK293, under the influence of the CMV […] promoter, and stable clones were selected using limiting dilution cloning and antibiotic selection using the neomycin analogue, G418. Recombinant beta and gamma subunits were not introduced into this cell line. Additional cell lines expressing recombinant Nav1.7 cloned from other species can also be used, alone or in combination with various beta subunits, gamma subunits or chaperones.
Unless otherwise noted, cell culture reagents were purchased from Mediatech of Herndon, Va. The recombinant Nav1.7/HEK293 cells were routinely cultured in growth medium consisting of Dulbecco's […] essential medium containing 10% fetal bovine serum (FBS, Hyclone, Thermo Fisher Scientific, Logan, Utah), 100 U/mL penicillin, 100 μg/mL streptomycin, 2-4 mM L-glutamine, and […] G418. For natural, non-recombinant cell lines, the selective antibiotic was omitted, and additional media formulations can be applied as needed.
The final buffer consisted of 20 mM Hepes, pH 7.3, 1.261 mM CaCl2, 0.493 mM MgCl2, 0.407 mM Mg(SO)4, 5.33 mM KCl, 0.441 mM KH2PO4, 137 mM NaCl, 0.336 mM Na2HPO4 and […] D-glucose (Hanks et al., Proc. Soc. Exp. Biol. Med. 71:196 (1949)), and the simple formulation was typically the basic buffer throughout the assay (i.e., all wash and addition steps).
The fluorescence indicator used in the primary fluorescence assay was the cell permeant version of CoroNa™ Green (Invitrogen, Molecular Probes, Eugene, Oreg.), a dye that emits light in the fluorescence range (Harootunian et al., J. Biol. Chem. 264(32):19458-19467 (1989)). The intensity of this emission, but not the wavelength range, is increased when the dye is exposed to Na^+ ions, which it can bind with partial selectivity. Cells expressing Nav1.7 or other sodium channels were loaded with the CoroNa™ Green dye immediately in advance of the fluorescence assay, and then, after agonist stimulation, the mobilization of Na^+ ions was detected as the Na^+ ions flowed from the extracellular fluid into the cytoplasm through the activated sodium channel pores. The dye was stored in the dark as a lyophilized powder, and then an aliquot was dissolved immediately before the cell loading procedure, according to the instructions of the manufacturer, to a stock concentration of 10 mM in DMSO. It was then diluted in the assay buffer to a 4× concentrated working solution, so that the final concentration of dye in the cell loading buffer was 5 μM.
In the fluorescence assays, two agonists were used in combination, namely 1) veratridine; and 2) the venom from the yellow scorpion, Leiurus quinquestriatus hebraeus. Veratridine is an alkaloid small molecule that facilitates the capture of channel openings by inhibiting inactivation, and the scorpion venom is a natural preparation that includes peptide toxins selective for different subsets of voltage-gated sodium channels. These scorpion toxins inhibit the fast inactivation of their cognate target channels. Stock solutions of the agonists were prepared to 40 mM in DMSO (veratridine) and 1 mg/mL in dH2O (scorpion venom), and then diluted to make a 4× or 2× stock (depending on the particular assay) in assay buffer, the final concentration being 100 μM (veratridine) and 10 μg/mL (scorpion venom). Both of the agonists were purchased from Sigma Aldrich, St. Louis, Mo.
Test compounds were dissolved in DMSO to yield 10 mM stock solutions. […]

Sequence of human Nav1.7 (Q15858 other isoform, or with tags, fused parts or gaps): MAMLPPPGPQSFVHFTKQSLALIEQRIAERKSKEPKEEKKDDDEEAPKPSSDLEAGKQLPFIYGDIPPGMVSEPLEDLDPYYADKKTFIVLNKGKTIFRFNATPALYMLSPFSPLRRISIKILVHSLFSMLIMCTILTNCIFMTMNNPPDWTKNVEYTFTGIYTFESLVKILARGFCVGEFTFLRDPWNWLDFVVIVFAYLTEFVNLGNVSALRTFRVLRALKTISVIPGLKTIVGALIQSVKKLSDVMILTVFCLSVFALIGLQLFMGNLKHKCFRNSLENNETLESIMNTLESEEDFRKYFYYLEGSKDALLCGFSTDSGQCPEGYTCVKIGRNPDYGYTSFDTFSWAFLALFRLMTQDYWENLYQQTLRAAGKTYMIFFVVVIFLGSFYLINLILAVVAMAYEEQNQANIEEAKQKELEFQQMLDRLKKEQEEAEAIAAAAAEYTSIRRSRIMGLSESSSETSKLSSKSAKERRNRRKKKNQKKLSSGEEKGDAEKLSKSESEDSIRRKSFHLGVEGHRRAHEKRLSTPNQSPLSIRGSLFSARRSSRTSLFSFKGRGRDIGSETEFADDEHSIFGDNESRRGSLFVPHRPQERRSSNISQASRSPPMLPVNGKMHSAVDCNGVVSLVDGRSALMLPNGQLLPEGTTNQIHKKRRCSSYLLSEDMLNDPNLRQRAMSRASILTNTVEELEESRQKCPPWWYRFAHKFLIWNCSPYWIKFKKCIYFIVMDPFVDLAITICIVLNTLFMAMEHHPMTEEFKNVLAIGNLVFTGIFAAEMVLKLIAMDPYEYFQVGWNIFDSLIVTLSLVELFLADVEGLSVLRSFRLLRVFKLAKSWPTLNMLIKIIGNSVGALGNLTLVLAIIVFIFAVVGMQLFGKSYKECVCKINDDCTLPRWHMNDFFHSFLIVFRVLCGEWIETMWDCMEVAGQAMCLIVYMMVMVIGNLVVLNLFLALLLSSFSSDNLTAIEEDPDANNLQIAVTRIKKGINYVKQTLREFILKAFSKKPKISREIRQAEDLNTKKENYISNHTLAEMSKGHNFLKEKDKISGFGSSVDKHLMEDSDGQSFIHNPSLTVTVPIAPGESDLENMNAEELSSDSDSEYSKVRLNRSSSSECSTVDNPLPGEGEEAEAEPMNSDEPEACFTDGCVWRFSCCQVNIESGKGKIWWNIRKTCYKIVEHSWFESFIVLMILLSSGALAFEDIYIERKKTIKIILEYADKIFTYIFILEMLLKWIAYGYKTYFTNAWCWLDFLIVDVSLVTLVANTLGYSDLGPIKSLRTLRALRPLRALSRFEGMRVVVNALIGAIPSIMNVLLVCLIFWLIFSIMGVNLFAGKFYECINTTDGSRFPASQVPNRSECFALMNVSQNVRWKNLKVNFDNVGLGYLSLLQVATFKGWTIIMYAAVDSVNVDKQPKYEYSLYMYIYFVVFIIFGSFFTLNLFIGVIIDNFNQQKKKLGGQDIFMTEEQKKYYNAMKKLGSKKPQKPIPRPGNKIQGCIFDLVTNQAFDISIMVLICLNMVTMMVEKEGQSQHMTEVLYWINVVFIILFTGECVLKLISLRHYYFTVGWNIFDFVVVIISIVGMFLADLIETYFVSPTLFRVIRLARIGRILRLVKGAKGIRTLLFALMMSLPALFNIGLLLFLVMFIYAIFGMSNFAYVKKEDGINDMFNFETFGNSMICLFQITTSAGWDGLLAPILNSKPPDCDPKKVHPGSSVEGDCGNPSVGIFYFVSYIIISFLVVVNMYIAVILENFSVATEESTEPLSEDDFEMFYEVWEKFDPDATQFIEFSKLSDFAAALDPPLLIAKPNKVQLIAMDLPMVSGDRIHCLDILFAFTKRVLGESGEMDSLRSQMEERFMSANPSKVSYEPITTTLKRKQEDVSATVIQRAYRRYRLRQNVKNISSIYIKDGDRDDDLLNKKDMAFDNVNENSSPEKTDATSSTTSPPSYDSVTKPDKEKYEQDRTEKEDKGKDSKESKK

IC50 [µM] | Compound
1.85 ± 0.361 | NC(=O)c1cccc(-c2ccc(Oc3ccc(C(F)(F)F)cc3CN3CCC(N)C3)cc2)n1 (centres unmarked) [compound 60, 6-(4-(2-((3-aminopyrrolidin-1-yl)methyl)-4-(trifluoromethyl)-phenoxy)phenyl)picolinamide]
0.366 ± 0.085 | NC(=O)c1cccc(-c2ccc(Oc3ccc(C(F)(F)F)c(CN4CC[C@H](O)C4)c3)cc2)n1 [compound 54, (S)-6-(4-(3-((3-hydroxy-pyrrolidin-1-yl)methyl)-4-(trifluoromethyl)phenoxy)-phenyl)picolinamide]
0.972 ± 0.114 | OC[C@@H](O)c1cccc(-c2ccc(Oc3ccc(C(F)(F)F)cc3CN3CC[C@H](O)C3)cc2)n1 [compound 75, (S)-1-(6-(4-(2-(((S)-3-hydroxypyrrolidin-1-yl)methyl)-4-(trifluoromethyl)phenoxy)-phenyl)pyridin-2-yl)ethane-1,2-diol]
0.118 ± 0.012 | CCN(CC)Cc1cc(C(F)(F)F)ccc1Oc1ccc(-c2cccc(C(N)=O)n2)cc1 [compound 118, 6-(4-(2-((diethylamino)methyl)-4-(trifluoromethyl)phenoxy)phenyl) picolinamide]
0.561 ± 0.024 | CCN(CC)C(C(N)=O)c1cc(C(F)(F)F)ccc1Oc1ccc(-c2cccc(C(N)=O)n2)cc1 (centres unmarked) [compound 85, 6-(4-(2-(2-amino-1-(diethylamino)-2-oxoethyl)-4-(trifluoromethyl)phenoxy)phenyl) picolinamide]
2.14 ± 0.432 | CN(C)CCNCc1cc(C(F)(F)F)ccc1Oc1ccc(-c2cccc(C(N)=O)n2)cc1 [compound 31, 6-(4-(2-(((2-(dimethylamino)ethyl)amino)methyl)-4-(trifluoromethyl)phenoxy)phenyl) picolinamide]
0.113 ± 0.034 | NC(=O)c1cccc(-c2ccc(Oc3ccc(C(F)(F)F)cc3CN3CCC(F)(F)C3)cc2)n1 [compound 45, 6-(4-(2-((3,3-difluoropyrrolidin-1-yl)methyl)-4-(trifluoromethyl)phenoxy)phenyl) picolinamide]
0.101 ± 0.021 | NC(=O)c1cccc(-c2ccc(Oc3ccc(C(F)(F)F)cc3-c3ccncc3)cc2)n1 [compound 28, 6-(4-(2-(pyridin-4-yl)-4-(trifluoromethyl)phenoxy)phenyl) picolinamide]
2.45 ± 0.344 | NC(=O)c1cccc(-c2ccc(Oc3ccc(C(F)(F)F)cc3[C@@H](O)CO)cc2)n1 [compound 77, (R)-6-(4-(2-(1,2-dihydroxyethyl)-4-(trifluoromethyl)-phenoxy)phenyl)picolinamide]
0.174 ± 0.041 | OC[C@@H](O)c1cccc(-c2ccc(Oc3ccc(C(F)(F)F)cc3CN3CCCCC3)cc2)n1 [compound 107, (S)-1-(6-(4-(2-(piperidin-1-ylmethyl)-4-(trifluoromethyl)phenoxy)phenyl)pyridin-2-yl)ethane-1,2-diol]
0.147 ± 0.016 | N#Cc1ccc(Oc2ccc(-c3cccc(C(N)=O)n3)cc2)c(-c2ccncc2)c1 [compound 15, 6-(4-(4-cyano-2-(pyridin-4-yl)phenoxy)phenyl)picolinamide]
3.34 ± 0.452 | N#CC(N)c1cc(C(F)(F)F)ccc1Oc1ccc(-c2cccc(C(N)=O)n2)cc1 (centres unmarked) [compound 145, 6-(4-(2-(amino(cyano)methyl)-4-(trifluoromethyl)phenoxy)phenyl) picolinamide]
3.05 ± 0.942 | NC(=O)c1cccc(-c2ccc(Oc3ccc(C(F)(F)F)cc3CNCCc3ccc(S(N)(=O)=O)cc3)cc2)n1 [compound 32, 6-(4-(2-(((4-sulfamoylphenethyl)-amino)methyl)-4-(trifluoro-methyl)phenoxy)phenyl)picolin-amide]
> 20 | N#Cc1ccc(Oc2ccc(-c3cccc(C(N)=O)n3)cc2)c(-c2ccc(O)nc2)c1 [compound 23, 6-(4-(4-cyano-2-(6-hydroxypyridin-3-yl)phenoxy)phenyl)picolinamide]
> 20 | NC(=O)c1cccc(-c2ccc(Oc3ccc(C(F)(F)F)cc3C(C(=O)N3CCCC3)N3CCNC(=O)C3)cc2)n1 (centres unmarked) [compound 112, 6-(4-(2-(2-oxo-1-(3-oxopiperazin-1-yl)-2-(pyrrolidin-1-yl)ethyl)-4-(trifluoromethyl)phenoxy)phenyl) picolinamide]
0.455 ± 0.059 | NC(=O)c1cccc(-c2ccc(Oc3ccc(C(F)(F)F)c(CN4CCNC(=O)C4)c3)cc2)n1 [compound 106, 6-(4-(3-((3-oxopiperazin-1-yl)methyl)-4-(trifluoromethyl)-phenoxy)phenyl)picolinamide]
0.426 ± 0.084 | N#Cc1ccc(Oc2ccc(-c3cccc(C(N)=O)n3)cc2)c(-c2ccc(N)cc2)c1 [compound 18, 6-(4-((4′-amino-5-cyano-[1,1′-biphenyl]-2-yl)oxy)phenyl)-picolinamide]
1.83 ± 0.383 | NC(=O)c1cccc(-c2ccc(Oc3ccc(F)cc3)c(-c3nn[nH]n3)c2)n1 [compound 101, 6-(4-(4-fluorophenoxy)-3-(2H-tetrazol-5-yl)phenyl)picolinamide]
0.067 ± 0.019 | Cn1cccc1-c1cc(C#N)ccc1Oc1ccc(-c2cccc(C(N)=O)n2)cc1 [compound 17, 6-(4-(4-cyano-2-(1-methyl-1H-pyrrol-2-yl)phenoxy)phenyl)-picolinamide]
0.174 ± 0.018 | NC(=O)c1cccc(-c2ccc(Oc3ccc(C(F)(F)F)c(CNCCC(F)(F)F)c3)cc2)n1 [compound 55, 6-(4-(4-(trifluoromethyl)-3-(((3,3,3-trifluoropropyl)amino)-methyl)phenoxy)phenyl)picolin-amide]
0.231 ± 0.008 | CC(c1cc(C(F)(F)F)ccc1Oc1ccc(-c2cccc(C(N)=O)n2)cc1)N1CCCC1 (centres unmarked) [compound 58, 6-(4-(2-(1-(pyrrolidin-1-yl)ethyl)-4-(trifluoromethyl)phenoxy)-phenyl)picolinamide]
0.913 ± 0.016 | CC(C)(C)OC(=O)N1CCC(NCc2cc(C(F)(F)F)ccc2Oc2ccc(-c3cccc(C(N)=O)n3)cc2)C1 (centres unmarked) [compound 48, tert-butyl 3-((2-(4-(6-carbamoylpyridin-2-yl)phenoxy)-5-(trifluoromethyl)benzyl)-amino)pyrrolidine-1-carboxylate]
0.566 ± 0.062 | NC(=O)c1cccc(-c2ccc(Oc3ccc(C(F)(F)F)cc3CN3CCCC(O)C3)cc2)n1 (centres unmarked) [compound 51, 6-(4-(2-((3-hydroxypiperidin-1-yl)methyl)-4-(trifluoromethyl)-phenoxy)phenyl)picolinamide]
0.223 ± 0.018 | NC(=O)c1cccc(-c2ccc(Oc3ccc(C(F)(F)F)cc3CN3CCOCC3)cc2)n1 [compound 43, 6-(4-(2-(morpholinomethyl)-4-(trifluoromethyl)phenoxy)phenyl) picolinamide]
0.066 ± 0.007 | CCN(C)Cc1cc(C(F)(F)F)ccc1Oc1ccc(-c2cccc(C(N)=O)n2)cc1 [compound 117, 6-(4-(2-((ethyl(methyl)amino)methyl)-4-(trifluoromethyl)phenoxy)phenyl) picolinamide]
0.096 ± 0.01 | NC(=O)c1cccc(-c2ccc(Oc3ccc(C(F)(F)F)cc3CN3CCCCC3)cc2)n1 [compound 49, 6-(4-(2-(piperidin-1-ylmethyl)-4-(trifluoromethyl)phenoxy)phenyl) picolinamide]
6.05 ± 1.33 | CCCNC(C(N)=O)c1cc(C(F)(F)F)ccc1Oc1ccc(-c2cccc(C(N)=O)n2)cc1 (centres unmarked) [compound 83, 6-(4-(2-(2-amino-2-oxo-1-(propylamino)ethyl)-4-(trifluoromethyl)phenoxy)phenyl) picolinamide]
0.312 ± 0.008 | COCc1cc(-c2cccc(C(N)=O)n2)ccc1Oc1ccc(F)cc1 [compound 103, 6-(4-(4-fluorophenoxy)-3-(methoxymethyl)phenyl)picolin-amide]
2.85 ± 0.698 | NC(=O)c1cccc(-c2ccc(Oc3ccc(C(F)(F)F)cc3C(=O)N3CCCC3)cc2)n1 [compound 160, 6-(4-(2-(pyrrolidine-1-carbonyl)-4-(trifluoromethyl)phenoxy)phenyl)picolinamide]
